Laboratory results as given in patent US20260266848A1, “COMPOSITIONS AND METHODS FOR DIAGNOSING AND TREATING DYSTONIA” (Duke University, priority 2023, published 2026).

Tested on: DYT-TOR1A MEF EVs
Test: Quantitative LC-MS/MS proteomics of EVs from drug-treated DYT-TOR1A MEF cultures (ritonavir, salubrinal)
Type: cell-based, mouse
Settings: 20 μM, 24 h

With `O=C(/C=C/c1ccccc1)NC(NC(=S)Nc1cccc2cccnc12)C(Cl)(Cl)Cl` (stereo not drawn) [salubrinal] the “DYT disrupted proteins (n=363) with significant corrective effects of salubrinal” value was 13%, the “total EV proteins significantly modified by salubrinal” value (of 1974 proteins) was 9% and the “Acaa1a (ACAA1) EV abundance Log2_FC” value (DYT1+Sal/DYT1) was −0.8007. For the same compound, the “Ano6 (ANO6) EV abundance Log2_FC” value (DYT1+Sal/DYT1) was −0.3535, the “Ap1b1 (AP1B1) EV abundance Log2_FC” value (DYT1+Sal/DYT1) was 0.5874 and the “Ar18b (ARL8B) EV abundance Log2_FC” value (DYT1+Sal/DYT1) was −0.08283. For the same compound, the “Bzw2 (BZW2) EV abundance Log2_FC” value (DYT1+Sal/DYT1) was −0.03057, the “Cryab (CRYAB) EV abundance Log2_FC” value (DYT1+Sal/DYT1) was 1.025 and the “DIst (DLST) EV abundance Log2_FC” value (DYT1+Sal/DYT1) was −0.5172. For the same compound, the “Ehd4 (EHD4) EV abundance Log2_FC” value (DYT1+Sal/DYT1) was −0.149, the “Flna (FLNA) EV abundance Log2_FC” value (DYT1+Sal/DYT1) was −0.07088 and the “Fscn1 (FSCN1) EV abundance Log2_FC” value (DYT1+Sal/DYT1) was −0.1414. For the same compound, the “Gart (GART) EV abundance Log2_FC” value (DYT1+Sal/DYT1) was 0.05776, the “Hist1h1b (H1-5) EV abundance Log2_FC” value (DYT1+Sal/DYT1) was −0.1163 and the “Hnrnpc (HNRNPC) EV abundance Log2_FC” value (DYT1+Sal/DYT1) was −0.2845. The “Ipo9 (IPO9) EV abundance Log2_FC” value (DYT1+Sal/DYT1) was 0.3059, the “Jam3 (JAM3) EV abundance Log2_FC” value (DYT1+Sal/DYT1) was −0.6132 and the “Lipg (LIPG) EV abundance Log2_FC” value (DYT1+Sal/DYT1) was −0.4507. For the same compound, the “Lrrc59 (LRRC59) EV abundance Log2_FC” value (DYT1+Sal/DYT1) was −0.4226, the “Mapk3 (MAPK3) EV abundance Log2_FC” value (DYT1+Sal/DYT1) was 0.6764 and the “Mars (MARS1) EV abundance Log2_FC” value (DYT1+Sal/DYT1) was −0.1637. The “Mrc2 (MRC2) EV abundance Log2_FC” value (DYT1+Sal/DYT1) was 0.01917, the “Myh9 (MYH9) EV abundance Log2_FC” value (DYT1+Sal/DYT1) was −0.2742 and the “Ndnf (NDNF) EV abundance Log2_FC” value (DYT1+Sal/DYT1) was −0.5746. The “Pcmt1 (PCMT1) EV abundance Log2_FC” value (DYT1+Sal/DYT1) was 1.133, the “Pi4ka (PI4KA) EV abundance Log2_FC” value (DYT1+Sal/DYT1) was −1.039 and the “Pitpnb (PITPNB) EV abundance Log2_FC” value (DYT1+Sal/DYT1) was 0.09822. The “Prpsap2 (PRPSAP2) EV abundance Log2_FC” value (DYT1+Sal/DYT1) was −0.0814, the “Psmc5 (PSMC5) EV abundance Log2_FC” value (DYT1+Sal/DYT1) was 0.4458 and the “Psmd12 (PSMD12) EV abundance Log2_FC” value (DYT1+Sal/DYT1) was −0.203. For the same compound, the “Psme4 (PSME4) EV abundance Log2_FC” value (DYT1+Sal/DYT1) was −0.2099, the “Ptma (PTMA) EV abundance Log2_FC” value (DYT1+Sal/DYT1) was 1.235 and the “Rap2b (RAP2B) EV abundance Log2_FC” value (DYT1+Sal/DYT1) was −0.3288. The “Rbm3 (RBM3) EV abundance Log2_FC” value (DYT1+Sal/DYT1) was 0.84, the “Rhoa (RHOA) EV abundance Log2_FC” value (DYT1+Sal/DYT1) was 0.2121 and the “Rpl10 (RPL10) EV abundance Log2_FC” value (DYT1+Sal/DYT1) was −0.05107. For the same compound, the “Rpl13a (RPL13A) EV abundance Log2_FC” value (DYT1+Sal/DYT1) was −0.1384, the “Rps13 (RPS13) EV abundance Log2_FC” value (DYT1+Sal/DYT1) was 0.02541 and the “Sec31a (SEC31A) EV abundance Log2_FC” value (DYT1+Sal/DYT1) was 0.1051. The “Slc2a1 (SLC2A1) EV abundance Log2_FC” value (DYT1+Sal/DYT1) was 0.1088, the “Stom (STOM) EV abundance Log2_FC” value (DYT1+Sal/DYT1) was 0.01864 and the “Tardbp (TARDBP) EV abundance Log2_FC” value (DYT1+Sal/DYT1) was 0.4388. The “Tgfb2 (TGFB2) EV abundance Log2_FC” value (DYT1+Sal/DYT1) was 0.3062, the “Tln1 (TLN1) EV abundance Log2_FC” value (DYT1+Sal/DYT1) was −0.1915 and the “Tln2 (TLN2) EV abundance Log2_FC” value (DYT1+Sal/DYT1) was −0.3236. The “Tubb1 (TUBB1) EV abundance Log2_FC” value (DYT1+Sal/DYT1) was −0.6949, the “Usp7 (USP7) EV abundance Log2_FC” value (DYT1+Sal/DYT1) was 1.365 and the “Wdr26 (WDR26) EV abundance Log2_FC” value (DYT1+Sal/DYT1) was −0.03177. The “Zyx (ZYX) EV abundance Log2_FC” value (DYT1+Sal/DYT1) was −0.2196, the “Acaa1a (ACAA1) EV abundance Log2_FC” value (DYT1/DYT1+Sal (inverse ratio)) was 0.8007 and the “Ano6 (ANO6) EV abundance Log2_FC” value (DYT1/DYT1+Sal (inverse ratio)) was 0.3535. For the same compound, the “Ap1b1 (AP1B1) EV abundance Log2_FC” value (DYT1/DYT1+Sal (inverse ratio)) was −0.5874, the “Arl8b (ARL8B) EV abundance Log2_FC” value (DYT1/DYT1+Sal (inverse ratio)) was 0.08283 and the “Bzw2 (BZW2) EV abundance Log2_FC” value (DYT1/DYT1+Sal (inverse ratio)) was 0.03057. For the same compound, the “Cryab (CRYAB) EV abundance Log2_FC” value (DYT1/DYT1+Sal (inverse ratio)) was −1.025, the “DIst (DLST) EV abundance Log2_FC” value (DYT1/DYT1+Sal (inverse ratio)) was 0.5172 and the “Ehd4 (EHD4) EV abundance Log2_FC” value (DYT1/DYT1+Sal (inverse ratio)) was 0.149. For the same compound, the “Flna (FLNA) EV abundance Log2_FC” value (DYT1/DYT1+Sal (inverse ratio)) was 0.07088, the “Fscn1 (FSCN1) EV abundance Log2_FC” value (DYT1/DYT1+Sal (inverse ratio)) was 0.1414 and the “Gart (GART) EV abundance Log2_FC” value (DYT1/DYT1+Sal (inverse ratio)) was −0.05776. For the same compound, the “Hist1h1b (H1-5) EV abundance Log2_FC” value (DYT1/DYT1+Sal (inverse ratio)) was 0.1163, the “Hnrnpc (HNRNPC) EV abundance Log2_FC” value (DYT1/DYT1+Sal (inverse ratio)) was 0.2845 and the “Ipo9 (IPO9) EV abundance Log2_FC” value (DYT1/DYT1+Sal (inverse ratio)) was −0.3059. The “Jam3 (JAM3) EV abundance Log2_FC” value (DYT1/DYT1+Sal (inverse ratio)) was 0.6132, the “Lipg (LIPG) EV abundance Log2_FC” value (DYT1/DYT1+Sal (inverse ratio)) was 0.4507 and the “Lrrc59 (LRRC59) EV abundance Log2_FC” value (DYT1/DYT1+Sal (inverse ratio)) was 0.4226. The “Mapk3 (MAPK3) EV abundance Log2_FC” value (DYT1/DYT1+Sal (inverse ratio)) was −0.6764, the “Mars (MARS1) EV abundance Log2_FC” value (DYT1/DYT1+Sal (inverse ratio)) was 0.1637 and the “Mrc2 (MRC2) EV abundance Log2_FC” value (DYT1/DYT1+Sal (inverse ratio)) was −0.01917. The “Myh9 (MYH9) EV abundance Log2_FC” value (DYT1/DYT1+Sal (inverse ratio)) was 0.2742, the “Ndnf (NDNF) EV abundance Log2_FC” value (DYT1/DYT1+Sal (inverse ratio)) was 0.5746 and the “Pcmt1 (PCMT1) EV abundance Log2_FC” value (DYT1/DYT1+Sal (inverse ratio)) was −1.133. For the same compound, the “Pi4ka (PI4KA) EV abundance Log2_FC” value (DYT1/DYT1+Sal (inverse ratio)) was 1.039, the “Pitpnb (PITPNB) EV abundance Log2_FC” value (DYT1/DYT1+Sal (inverse ratio)) was −0.09822 and the “Prpsap2 (PRPSAP2) EV abundance Log2_FC” value (DYT1/DYT1+Sal (inverse ratio)) was 0.0814. For the same compound, the “Psmc5 (PSMC5) EV abundance Log2_FC” value (DYT1/DYT1+Sal (inverse ratio)) was −0.4458, the “Psmd12 (PSMD12) EV abundance Log2_FC” value (DYT1/DYT1+Sal (inverse ratio)) was 0.203 and the “Psme4 (PSME4) EV abundance Log2_FC” value (DYT1/DYT1+Sal (inverse ratio)) was 0.2099. The “Ptma (PTMA) EV abundance Log2_FC” value (DYT1/DYT1+Sal (inverse ratio)) was −1.235, the “Rap2b (RAP2B) EV abundance Log2_FC” value (DYT1/DYT1+Sal (inverse ratio)) was 0.3288 and the “Rbm3 (RBM3) EV abundance Log2_FC” value (DYT1/DYT1+Sal (inverse ratio)) was −0.84. The “Rhoa (RHOA) EV abundance Log2_FC” value (DYT1/DYT1+Sal (inverse ratio)) was −0.2121, the “Rpl10 (RPL10) EV abundance Log2_FC” value (DYT1/DYT1+Sal (inverse ratio)) was 0.05107 and the “Rpl13a (RPL13A) EV abundance Log2_FC” value (DYT1/DYT1+Sal (inverse ratio)) was 0.1384. For the same compound, the “Rps13 (RPS13) EV abundance Log2_FC” value (DYT1/DYT1+Sal (inverse ratio)) was −0.02541, the “Sec31a (SEC31A) EV abundance Log2_FC” value (DYT1/DYT1+Sal (inverse ratio)) was −0.1051 and the “Slc2a1 (SLC2A1) EV abundance Log2_FC” value (DYT1/DYT1+Sal (inverse ratio)) was −0.1088. The “Stom (STOM) EV abundance Log2_FC” value (DYT1/DYT1+Sal (inverse ratio)) was −0.01864, the “Tardbp (TARDBP) EV abundance Log2_FC” value (DYT1/DYT1+Sal (inverse ratio)) was −0.4388 and the “Tgfb2 (TGFB2) EV abundance Log2_FC” value (DYT1/DYT1+Sal (inverse ratio)) was −0.3062. The “Tln1 (TLN1) EV abundance Log2_FC” value (DYT1/DYT1+Sal (inverse ratio)) was 0.1915, the “Tln2 (TLN2) EV abundance Log2_FC” value (DYT1/DYT1+Sal (inverse ratio)) was 0.3236 and the “Tubb1 (TUBB1) EV abundance Log2_FC” value (DYT1/DYT1+Sal (inverse ratio)) was 0.6949. The “Usp7 (USP7) EV abundance Log2_FC” value (DYT1/DYT1+Sal (inverse ratio)) was −1.365, the “Wdr26 (WDR26) EV abundance Log2_FC” value (DYT1/DYT1+Sal (inverse ratio)) was 0.03177 and the “Zyx (ZYX) EV abundance Log2_FC” value (DYT1/DYT1+Sal (inverse ratio)) was 0.2196.
